Row | Structure (SMILES) | melting point [°C]
1 | CC(C)(O)Cn1c(CO)nc2c(N)nc3cc(CCS(C)(=O)=O)ccc3c21 [Example 105, 1-{4-Amino-2-(hydroxymethyl)-7-[2-(methylsulfonyl)ethyl]-1H-imidazo[4,5-c]quinolin-1-yl}-2-methylpropan-2-ol] | 221 to 223
2 | CCc1nc2c(N)nc3cc(CCC(=O)N4CCOCC4)ccc3c2n1CC(C)(C)O [Example 98, 3-[4-Amino-2-ethyl-1-(2-hydroxy-2-methylpropyl)-1H-imidazo[4,5-c]quinolin-7-yl]-1-(morpholin-4-yl)propan-1-one] | 237 to 239
3 | CC(C)(O)Cn1cnc2c(N)nc3cc(CCS(C)(=O)=O)ccc3c21 [Example 99] | 269 to 271
4 | CCOCc1nc2c(N)nc3cc(NS(=O)(=O)CC)ccc3c2n1CC(C)(C)O [Example 4, N-[4-Amino-2-ethoxymethyl-1-(2-hydroxy-2-methylpropyl)-1H-imidazo[4,5-c]quinolin-7-yl]ethanesulfonamide] | 124 to 127
5 | COCc1nc2c(N)nc3cc(CCS(C)(=O)=O)ccc3c2n1CC(C)(C)O [Example 104, 1-{4-Amino-2-(methoxymethyl)-7-[2-(methylsulfonyl)ethyl]-1H-imidazo[4,5-c]quinolin-1-yl}-2-methylpropan-2-ol] | 210 to 212
6 | CCc1nc2c(N)nc3cc(CCC(=O)N4CCSC4)ccc3c2n1CC(C)(C)O [Example 103, 1-{4-Amino-2-ethyl-7-[3-oxo-3-(1,3-thiazolidin-3-yl)propyl]-1H-imidazo[4,5-c]quinolin-1-yl}-2-methylpropan-2-ol] | 210 to 212
7 | CCOCc1nc2c(N)nc3cc(S(C)(=O)=O)ccc3c2n1CCCOC [Example 7, 2-Ethoxymethyl-1-(3-methoxypropyl)-7-methylsulfonyl-1H-imidazo[4,5-c]quinolin-4-amine] | 166.5 to 167.5

Next, values leading:

Row | melting point [°C] | Structure (SMILES)
8 | > 260 | CCc1nc2c(N)nc3cc(/C=C/C(=O)N(C)C)ccc3c2n1CC1CCOCC1 [Example 128, (2E)-3-[4-Amino-2-ethyl-1-(tetrahydro-2H-pyran-4-ylmethyl)-1H-imidazo[4,5-c]quinolin-7-yl]-N,N-dimethylprop-2-enamide]
9 | 205 to 207 | COCc1nc2c(N)nc3cc(CCCNS(C)(=O)=O)ccc3c2n1CC(C)(C)O [Example 109, N-{3-[4-Amino-1-(2-hydroxy-2-methylpropyl)-2-(methoxymethyl)-1H-imidazo[4,5-c]quinolin-7-yl]propyl}methanesulfonamide]
10 | 213 to 216 | CCc1nc2c(N)nc3cc(CCCNC(=O)NC(C)C)ccc3c2n1CC1CCOCC1 [Example 126, N-{3-[4-amino-2-ethyl-1-(tetrahydro-2H-pyran-4-ylmethyl)-1H-imidazo[4,5-c]quinolin-7-yl]propyl}-N′-isopropylurea]
11 | 259 to 261 | CCOCc1nc2c(N)nc3ccc(NC(=O)C(C)C)cc3c2n1CC(C)(C)O [Example 117, N-[4-Amino-2-(ethoxymethyl)-1-(2-hydroxy-2-methylpropyl)-1H-imidazo[4,5-c]quinolin-8-yl]-2-methylpropanamide]
12 | 142 to 145 | COCc1nc2c(N)nc3cc(CCC(=O)N(C)C)ccc3c2n1CC(C)(C)O [Example 108, 3-[4-Amino-1-(2-hydroxy-2-methylpropyl)-2-(methoxymethyl)-1H-imidazo[4,5-c]quinolin-7-yl]-N,N-dimethylpropanamide]
13 | 168 to 170 | CCc1nc2c(N)nc3cc(CCCNS(C)(=O)=O)ccc3c2n1CC1CCOCC1 [Example 124, N-{3-[4-Amino-2-ethyl-1-(tetrahydro-2H-pyran-4-ylmethyl)-1H-imidazo[4,5-c]quinolin-7-yl]propyl}methanesulfonamide]
14 | 217 to 220 | CCc1nc2c(N)nc3cc(CCCN)ccc3c2n1CC1CCOCC1 [Example 123, 7-(3-Aminopropyl)-2-ethyl-1-(tetrahydro-2H-pyran-4-ylmethyl)-1H-imidazo[4,5-c]quinolin-4-amine]
15 | 273 to 275 | CCc1nc2c(N)nc3cc(CCC#N)ccc3c2n1CC1CCOCC1 [Example 121, 3-[4-Amino-2-ethyl-1-(tetrahydro-2H-pyran-4-ylmethyl)-1H-imidazo[4,5-c]quinolin-7-yl]propanenitrile]
16 | 203 to 205 | CCOCc1nc2c(N)nc3cc(C=O)ccc3c2n1CC(C)(C)O [Example 133, 4-Amino-2-(ethoxymethyl)-1-(2-hydroxy-2-methylpropyl)-1H-imidazo[4,5-c]quinoline-7-carbaldehyde]
